Results as given in patent US4668686A, “Imidazoquinoline antithrombrogenic cardiotonic agents” (Bristol-Myers Company, priority 1986, dated 1987).
≈ marks a conversion by molar mass, not a printed value. Like-named read-outs stand apart in the source and are kept apart here.

Key:
[1] = test system: collagen-induced platelet aggregation; test: In vitro inhibition of collagen-induced platelet aggregation (aggregometer, rabbit PRP); type: cell-based; conditions: Oryctolagus cuniculus, read-out: Platelet Inhibition In Vitro - Rabbit PRP EC50 vs. collagen
Procedure: (§1) The aggregometer method of Born (1), as modified by Mustard, et al. (2) was used to assess the in vitro activity of the various compounds as to inhibition of adenosine diphosphate (ADP) and collagen-induced platelet aggregation. Platelet rich plasma (PRP) was separated by centrifugation from citrated (3.8 percent) rabbit blood. […] The various compounds tested were dissolved in dimethylsulfoxide (DMSO) so that 5 mcl added to the platelet rich plasma would yield the desired test concentration. Vehicle control trials were done and compared with aggregation induced in platelet rich plasma containing various concentrations of the test compounds. Dose response curves were obtained and Effective Concentration (EC50) values calculated.

[2] = test system: right ventricular contractile force (RVCF); test: In vivo inotropic activity (right ventricular contractile force, anesthetized ferrets); conditions: Mustela putorius, intraduodenal, read-out: Inotropic Activity In Vivo - Ferret % Change RVCF
Procedure: This test is carried out in ferrets as follows.
Fasted anesthetized ferrets are instrumented to study hemodynamic parameters as well as right ventricular contractile force using a Walton-Brodie open strain guage arch. Drugs are administered intraduodenally as solutions in DMSO (1 mL or less) and effects on myocardial contractile force and other parameters are monitored for 60 minutes after dosing. Changes in contractile force in response to drug treatment are expressed in terms of percent change from predose control.

[3] = test system: ADP-induced platelet aggregation; test: In vitro inhibition of ADP-induced platelet aggregation (aggregometer, rabbit PRP); type: cell-based; conditions: Oryctolagus cuniculus, read-out: Platelet Inhibition In Vitro - Rabbit PRP EC50 vs. ADP
Procedure: as §1

[4] = biological target: T1, cAMP phosphodiesterase (PDE) obtained from human platelets (Homo sapiens, UniProt Q14432); test: Inhibition of cyclic AMP phosphodiesterase; type: biochemical
T1 construct: obtained from human platelets; from tissue; host or cells: human platelets
T1 sequence (Q14432 whole entry): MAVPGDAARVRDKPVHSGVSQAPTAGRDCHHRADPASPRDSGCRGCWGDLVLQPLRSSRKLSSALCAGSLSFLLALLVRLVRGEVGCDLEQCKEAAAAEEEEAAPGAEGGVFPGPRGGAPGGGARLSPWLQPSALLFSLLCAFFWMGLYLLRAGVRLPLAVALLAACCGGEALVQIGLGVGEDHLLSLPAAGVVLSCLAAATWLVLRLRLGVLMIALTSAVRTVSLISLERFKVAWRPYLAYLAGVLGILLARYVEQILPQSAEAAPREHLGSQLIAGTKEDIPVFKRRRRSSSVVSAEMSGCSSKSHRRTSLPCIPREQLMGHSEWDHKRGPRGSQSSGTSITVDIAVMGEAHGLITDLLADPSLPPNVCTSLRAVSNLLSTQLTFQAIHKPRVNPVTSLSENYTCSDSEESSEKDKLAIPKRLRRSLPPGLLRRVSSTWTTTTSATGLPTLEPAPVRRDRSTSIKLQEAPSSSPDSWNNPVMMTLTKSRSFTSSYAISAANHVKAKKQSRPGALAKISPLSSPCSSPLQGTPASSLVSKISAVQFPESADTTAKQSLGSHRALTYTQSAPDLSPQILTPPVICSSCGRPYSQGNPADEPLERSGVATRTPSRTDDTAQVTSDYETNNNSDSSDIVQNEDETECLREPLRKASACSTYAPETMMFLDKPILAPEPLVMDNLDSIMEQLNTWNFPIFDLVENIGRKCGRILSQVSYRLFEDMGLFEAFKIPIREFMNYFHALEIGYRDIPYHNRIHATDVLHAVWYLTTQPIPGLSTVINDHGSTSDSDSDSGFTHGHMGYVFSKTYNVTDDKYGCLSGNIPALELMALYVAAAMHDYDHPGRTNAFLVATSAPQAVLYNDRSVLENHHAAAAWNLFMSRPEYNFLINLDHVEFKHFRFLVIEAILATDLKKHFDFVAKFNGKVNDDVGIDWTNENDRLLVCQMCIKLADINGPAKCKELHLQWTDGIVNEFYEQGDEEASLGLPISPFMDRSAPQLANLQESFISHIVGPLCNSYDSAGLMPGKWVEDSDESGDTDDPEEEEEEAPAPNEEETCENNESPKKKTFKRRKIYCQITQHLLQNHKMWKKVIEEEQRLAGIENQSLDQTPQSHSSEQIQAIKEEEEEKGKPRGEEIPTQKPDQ
Procedure: This assay is carried out essentially as described by Thompson, et al., Methods in Enzymology, 38, 205-212 (1974). Briefly, tritium labeled cyclic adenosine monophosphate (cAMP) is incubated with a phosphodiesterase (PDE) enzynme obtained from human platelets which converts a portion of the cAMP to 5'AMP in culture tubes. This reaction is terminated by submerging the tubes in a boiling water bath after which they are placed on ice and an aliquot of snake venom is added to each tube. This, during a second incubation, converts the 5'AMP to adenosine. Ion exchange resin is added to bind the remaining cyclic AMP. The tubes are centrifuged to sediment the resin and a portion of the clear supernatent (which contains radioactive adenosine) is counted in a liquid scintillation counter. The cAMP phosphodiesterase inhibition activity of a test agent is determined by pre-incubating the PDE enzyme preparation with the test agent.

[5] = test system: platelet aggregation vs. ADP; test: Inhibition of platelet aggregation following oral administration (Ex vivo); type: in vivo; conditions: Rattus norvegicus, rats, 2 hours after dosing
Procedure: This test is sometimes referred to in the art as an Ex vivo method and was initially described by Fleming, et al., Arch. Int. Pharmacodyn. Ther., 199, 164 (1972). Briefly, the assay is essentially carried out as follows. Aggregometry is performed in vitro as previously described on platelet rich plasma samples obtained from rats dosed with either test compounds or the vehicle. In all cases, activity is determined 2 hours after the drug is administered orally at various doses by gavage as a suspension in […] plus a few drops of Tween 20.

[6] = 3 mg/kg, i.d., mean ± standard error when n more than 1

## COc1ccc2nc3[nH]c(=O)[nH]c3cc2c1 [Example 12, 7-Methoxy-1,3-dihydro-2H-imidazo[4,5-b]quinolin-2-one]
[1]
  EC50: 0.02 µg/mL (≈ 0.0929 µM)
[2]; [6]
  change in vivo at 3 mg/kg: 11 ± 4%

## Cc1cccc2c1CC1NC(=O)NC1=N2 (centres unmarked) [Example 20-3, 8-methyl-1,3,9,9a-tetrahydro-2H-imidazo[4,5-b]quinolin-2-one]
[3]
  EC50: 0.05 µg/mL (≈ 0.248 µM)
[1]
  EC50: 0.03 µg/mL (≈ 0.149 µM)
[4]
  IC50: 0.1 µM
[2]; 0.3 mg/kg, i.d.
  change in vivo at 0.3 mg/kg: 30 ± 5%
[2]; [6]
  change in vivo at 3 mg/kg: 15 ± 4%

## O=c1[nH]c2cc3cc(Br)ccc3nc2[nH]1 [Example 22, 7-Bromo-1,3-dihydro-2H-imidazo[4,5-b]quinolin-2-one]
[3]
  EC50: 0.3 µg/mL (≈ 1.14 µM)
[1]
  EC50: 0.2 µg/mL (≈ 0.757 µM)
[4]
  IC50: 0.1 µM

## O=c1[nH]c2cc3ccc(C(F)(F)F)cc3nc2[nH]1 [Example 25, 1,3-Dihydro-6-(trifluoromethyl)-2H-imidazo[4,5-b]quinolin-2-one]
[3]
  EC50: 0.4 µg/mL (≈ 1.58 µM)
[1]
  EC50: 0.7 µg/mL (≈ 2.76 µM)
[5]
  ED50: > 10 mg/kg
[4]
  IC50: 0.3 µM

## Cc1ccc2c(c1C)CC1NC(=O)NC1=N2 (centres unmarked) [Example 35, 7,8-Dimethyl-1,3,9,9a-tetrahydro-2H-imidazo-[4,5-b]quinolin-2-one]
[3]
  EC50: 0.1 µg/mL (≈ 0.465 µM)
[1]
  EC50: 0.04 µg/mL (≈ 0.186 µM)
[5]
  ED50: > 10 mg/kg
[4]
  IC50: 0.03 µM

## Cc1cccc2c1CC1C(=N2)NC(=O)N1C (centres unmarked) [Example 36, 1,3,9,9a-Tetrahydro-1,8-dimethyl-2H-imidazo[4,5-b]quinolin-2-one]
[3]
  EC50: 20 µg/mL (≈ 92.9 µM)
[1]
  EC50: 12 µg/mL (≈ 55.7 µM)

## OCCN(CCO)c1nc(N2CCCCC2)c2nc(N(CCO)CCO)nc(N3CCCCC3)c2n1 [dipyridamole, reference compound]
[3]
  EC50: > 512 µg/mL
[5]
  ED50: > 100 mg/kg

## Cc1[nH]c(=O)c(C#N)cc1-c1ccncc1 [milrinone, reference compound]
[2]
  change in vivo at 3 mg/kg: 52%
